Read-outs that look alike come from different tables or passages of the source.
What was measured:
[1] = Hydrogen sulfide selectivity test: decomplexation by Cys; format: physicochemical; conditions: 100 μM or L-Cys (1 mM), 37° C. for 15 minutes
Method: (§1) In addition to hydrogen sulfide, many different anions, radicals, etc. exist in the body. Therefore, to examine selective reactivity of the ^64Cu-labeled complex compound according to the present disclosure for sulfide ions, the following experiment was performed.
(§2) About 45 μCi-55 μCi of the ^64Cu-labeled complex compound (250 μL of triple distilled water) was mixed with 100 μM of various anion solutions (250 μL of triple distilled water) including biothiol, and stirred at 37° C. for 15 minutes.
(§3) Formation of copper sulfide (^64CuS) was quantified by using a radio-TLC scanner.
(§4) Various biothiol or salt solutions were prepared by dissolving the compounds in triple distilled water.
(§5) In Table, concentrations of all biothiols and other competitive materials are 100 μM. Further, specific concentrations of biothiols, anions, and oxidants used in Table are as follows: [L-Cys (1 mM); L-Hcys (10 mM); GSH (10 mM); DL-dithiothretitol (DTT, 100 μM); L-ascorbic acid (L-AsA, 10 mM); 2-mercaptoethanol (2-ME, 10 mM); NaCl (10 mm); KI (1 mM); Na2S2O3 (1 mM); Na2S2O5 (1 mM); NaOAc (1 mM); H2O2 ([…]); NaClO4 (100 μM); NaHCO3 (100 μM); NaNO2 ([…]); NaN3 (100 μM); ATB 337 (100 μM); diallyl trisulphide (100 μM)].

[2] = Hydrogen sulfide selectivity test: decomplexation by GSH; format: physicochemical; conditions: 100 μM or GSH (10 mM), 37° C. for 15 minutes
Method: as §1, §2, §3, §4, §5

[3] = Hydrogen sulfide selectivity test: decomplexation by DTT; format: physicochemical; conditions: DL-dithiothretitol (DTT, 100 μM); 37° C. for 15 minutes
Method: as §1, §2, §3, §4, §5

[4] = Hydrogen sulfide selectivity test: decomplexation by L-AsA; format: physicochemical; conditions: L-ascorbic acid; 100 μM or (L-AsA, 10 mM); 37° C. for 15 minutes
Method: as §1, §2, §3, §4, §5

[5] = Hydrogen sulfide selectivity test: decomplexation by ME; format: physicochemical; conditions: 2-mercaptoethanol; 100 μM or (2-ME, 10 mM); 37° C. for 15 minutes
Method: as §1, §2, §3, §4, §5

[6] = Hydrogen sulfide selectivity test: decomplexation by Kl; format: physicochemical; conditions: 100 μM or KI (1 mM), 37° C. for 15 minutes
Method: as §1, §2, §3, §4, §5

[7] = Hydrogen sulfide selectivity test: decomplexation by Na2S2O3; format: physicochemical; conditions: 100 μM or (1 mM), 37° C. for 15 minutes
Method: as §1, §2, §3, §4, §5

[8] = Hydrogen sulfide selectivity test: decomplexation by Na2S2O5; format: physicochemical; conditions: 100 μM or (1 mM), 37° C. for 15 minutes
Method: as §1, §2, §3, §4, §5

[9] = Hydrogen sulfide selectivity test: decomplexation by NaOAc; format: physicochemical; conditions: 100 μM or (1 mM), 37° C. for 15 minutes
Method: as §1, §2, §3, §4, §5

[10] = Hydrogen sulfide selectivity test: decomplexation by H2O2; format: physicochemical; conditions: H2O2 (100 µM); 37° C. for 15 minutes
Method: as §1, §2, §3, §4, §5

[11] = Hydrogen sulfide selectivity test: decomplexation by NaClO4; format: physicochemical; conditions: NaClO4 (100 μM); 37° C. for 15 minutes
Method: as §1, §2, §3, §4, §5

[12] = Hydrogen sulfide selectivity test: decomplexation by NaNO2; format: physicochemical; conditions: NaNO2 (100 µM); 37° C. for 15 minutes
Method: as §1, §2, §3, §4, §5

[13] = Hydrogen sulfide selectivity test: decomplexation by NaN3; format: physicochemical; conditions: NaN3 (100 μM); 37° C. for 15 minutes
Method: as §1, §2, §3, §4, §5

[14] = Hydrogen sulfide selectivity test: decomplexation by ATB 337; format: physicochemical; conditions: ATB 337 (100 μM); 37° C. for 15 minutes
Method: as §1, §2, §3, §4, §5

[15] = Hydrogen sulfide selectivity test: decomplexation by DAT (diallyl trisulphide); format: physicochemical; conditions: DAT = diallyl trisulphide (100 μM); 37° C. for 15 minutes
Method: as §1, §2, §3, §4, §5

[16] = tested on: Paw inflammation model; format: in vivo, Balb/c or ICR mice
Method: (1) Paw Pain Inflammation Model
A small amount of CFA (complete Freund's adjuvant) or formalin was injected into only one paw (right) of the hind paws of Balb/c or ICR mice to establish inflammation models. 1 day after injection of the inflammation inducer, the mice were used in imaging or other in vivo experiments.
It is a known fact that inflamed sites show high concentrations of hydrogen sulfide.
Nuclear medicine imaging was measured by using an Inveon PET/CT system of Siemens Healthcare, and optical imaging was measured by using IVIS spectrum CT equipment. Cherenkov radiation emitted from ^64Cu was measured by using a highly sensitive CCD (charge-coupled device) camera.
Imaging was measured for 1 minute to 5 minutes, and a radiation dose was about 50 μCi to 2000 μCi, and photographs were variously taken as needed, such as immediately after first injection, at 1 hour, 4 hours, and 24 hours later.

[17] = tested on: Myocardial infarction model; assay: Imaging study in myocardial infarction model (PET); format: in vivo, Sprague-Dawley rats
From the text: (2) Myocardial Infarction Model
A myocardial infarction model was established by using Sprague-Dawley rats (12-week-old or older, about 250 g). 2 days later after induction of myocardial infarction by occlusion of the coronary arteries in the heart, the rats were used in imaging tests. It is a known fact that myocardial infarction sites show high concentrations of hydrogen sulfide.
It is known that myocardial infarction sites show high concentrations of hydrogen sulfide. Thus, after induction of myocardial infarction by coronary artery occlusion in rats, 50 μCi-900 μCi of the ^64Cu-labeled complex compound was injected via the tails of the rats, and uptake in the myocardial infarction site was examined over time by PET imaging.
36 hours after establishment of the myocardial infarction model, 730 μCi of the radioisotope-labeled complex compound of the present disclosure was injected and nuclear medicine imaging was performed. 2 days later, […] of FDG was injected into the same rat, and then FDG-PET images were obtained. Results are shown in FIGS. 15 to 17 (in the nuclear medicine imaging, the upper image represents a transverse image, and the lower image represents a coronal image).

[18] = tested on: Pancreatitis model; assay: Imaging study in pancreatitis model; format: in vivo, Balb/c mouse; conditions: optical images; PET images after excision of tissues
Method: Caerulein (50 μg/kg) was intraperitoneally injected into Balb/c mouse seven times at hourly intervals to prepare a pancreatitis model.
Optical images were obtained after injecting each of the ^64Cu-labeled complex compounds of Example 1 and Example 20 into the prepared rat models having pancreatitis, and PET images were obtained after excision of tissues thereof.

| SMILES | Decomplexation [%] [1] | Decomplexation [%] [2] | Decomplexation [%] [3] | Decomplexation [%] [4] | Decomplexation [%] [5] | Decomplexation [%] [6] | Decomplexation [%] [7] | Decomplexation [%] [8] | Decomplexation [%] [9] | Decomplexation [%] [10] | Decomplexation [%] [11] | Decomplexation [%] [12] | Decomplexation [%] [13] | Decomplexation [%] [14] | Decomplexation [%] [15] | uptake in the pancreas [18] | also measured |
| --- | --- | --- | --- | --- | --- | --- | --- | --- | --- | --- | --- | --- | --- | --- | --- | --- | --- |
| C1C[N]2CC[N]3CC[N]4CC[N]1[64Cu]243 [Example 1, ^64Cu-labeled cyclen] | 0.5 ± 0.1% | 0.7 ± 0.0% | 0.6 ± 0.4% | 0.5 ± 0.1% | 0.5 ± 0.1% | 0.7 ± 0.2% | 0.4 ± 0.0% | 0.5 ± 0.2% | 0.6 ± 0.1% | 0.5 ± 0.4% | 0.6 ± 0.2% | 0.6 ± 0.0% | 0.3 ± 0.2% | 0.7 ± 0.4% | 0.4 ± 0.3% | high uptakes | retention time in the animal models ([16]; ICR and Balb/c, mouse, in vivo): ≥ 24 h; uptake in inflamed paw versus opposite paw ([16]; PET imaging): higher uptake in the inflamed right paw than in the opposite paw; uptake in the CFA-induced inflamed site ([16]; optical imaging): increased uptake; uptake in the myocardial infarction site ([17]; image taken at 24 hours after injection): high uptake was detected in the myocardial infarction site |
| C1C[N]2CC[N]3CC[N]1[64Cu]23 [Example 20, ^64Cu-labeled TACN] | 0.8 ± 0.3% | 2.6 ± 0.0% | 0.9 ± 0.1% | 0.8 ± 0.5% | 0.4 ± 0.0% | 0.4 ± 0.2% | 0.5 ± 0.0% | 0.5 ± 0.2% | 0.3 ± 0.0% | 0.8 ± 0.3% | 0.4 ± 0.1% | 0.4 ± 0.0% | 0.4 ± 0.0% | 0.7 ± 0.2% | 0.7 ± 0.6% | high uptakes | detection of the inflamed site immediately after injection ([16]; imaging immediately after injection): detected in imaging immediately after injection; uptake in inflamed paw versus opposite paw ([16]; imaging performed after 1 hour, also PET imaging): higher uptake; uptake / visualisation of the myocardial infarction site ([17]; PET imaging after injection): the myocardial infarction site was clearly observed |

Reference: patent publication US10583206B2, “Radioactive probe for detecting hydrogen sulfide” (KYUNGPOOK NATIONAL UNIVERSITY INDUSTRY-ACADEMIC COOPERATION …, priority 2015, dated 2020)
